Read-outs that look alike come from different tables or passages of the source.
Experiments:
CB2 receptor = CB2 receptor (Homo sapiens, UniProt P34972); assay: [3H]CP-55,940 radioligand competition binding, CB2; parameters: host or cells: cell membrane preparations; conditions: for SI: selectivity index for CB2: Ki(CB1)/Ki(CB2) ratio
Protocol: (§1) Briefly, the bioassay is carried out using the Perkin Elmer 96-well Top Counter. […] The procedure is as follows.
(§2) In competition binding experiments, the tested compound dilutions are carried out in duplicate in TME buffer (25 mM Tris, 5 mM MgCl2, 1 mM EDTA) containing 0.1% (w/v) fatty acid free bovine serum albumin (BSA), pH 7.4. […] TME buffer and cell membrane preparations expressing CB receptors (5 μg per well) are added to a final volume of 200 μL. […] After the binding suspensions are incubated at 30° C. for 1 hr, the reaction is terminated by rapid filtration through microfiltration plates (Unifilter GF/B filterplate, PerkinElmer), followed by 5 washes with ice cold TME buffer containing 0.1% BSA on a Packard Filtermate Harvester (PerkinElmer). The plates are then dried overnight and 30 μl MicroScint 0 scintillation cocktail is added to each well of the dried filter plates. The bound radioactivity is then counted using a Perkin Elmer 96-well TopCounter. […] This assay is used for determination of the binding affinity parameters (Ki) of ligand-receptor interactions for the CB receptor.

RAW 264.7 cells = assay: RANKL-induced osteoclast differentiation on RAW 264.7 cells (TRAP); type: cell-based, mouse; conditions: for inhibition at 0.1 µM / inhibition at 1 µM / inhibition at 10 µM: Mus musculus, RAW264.7, read-out: inhibition rate of osteoclast formation; for inhibition of RANKL-induced osteoclastogenesis, dose dependence: RANKL 15 ng/mL, 5 days; for inhibition at 1 µM / inhibition activity at low dose: 1 μM
From the text: FIG. 5. Anti-osteoclastogenesis activity of exemplary compounds. […] The bar indicates the SD. (B) Photographs of cells in the test of compound 93 (original magnification 100×).

[1] = tested on: peripheral blood mononuclear cell (PBMC); assay: Cytotoxicity on normal human PBMC, trypan blue exclusion; type: cell-based; conditions: 3 days
From the text: Peripheral blood was drawn in a heparinized syringe from healthy fasting volunteers who had been without medication for at least 2 weeks. The peripheral blood mononuclear cell (PBMC) fraction was obtained by gradient centrifugation over Ficoll-Hypaque (Amersham), as described by Feng, R. et al. S. KD5170, a novel mercaptoketone-based histone deacetylase inhibitor, exerts antimyeloma effects by DNA damage and mitochondrial signaling, Mol. Cancer Ther. 2008, 7, 1494-1505. […] The compounds in a stock solution (50 mMin DMSO) were diluted with the culture medium to application conditions and further used for the treatment of PBMC for 3 days. The final DMSO concentrations are always 0.02%. After treatment for 72 h, cell viability was determined using trypan blue exclusion assay. These human cell studies conformed to the guidelines of the Institutional Review Board of the University of Pittsburgh, Pa.

Human MM cell U266 = assay: [3H]-thymidine uptake cell proliferation assay, U266; type: cell-based; conditions: U266, 0-10 μmol/L, 48 h
Protocol: FIG. 2. Inhibitory effects of CB2 ligands on human MM cell growth. Human MM cell U266 (3×10^4 cells per well in 96-well plate) was exposed to the known CB2 ligands (A) or PAM (B) at indicated concentrations (0-10 μmol/L) for 48 h. Cell proliferation was measured by [^3H]-thymidine uptake assay as described in Materials and Methods. (C) U266 cells (3×10^4 per well in 96-well plate) were treated with PAM at indicated doses for 48 h. Cell viability and the viable cell number per well were determined using trypan blue exclusion assay. (D) Human chemoresistant myeloma cell lines MM.1R (dexamethasone), RPMI-8226/LR5 (melphalan) and their respective parent cells MM.1S and RPMI-8226 were exposed to PAM for 48 h. Cell proliferation was measured by ^3H-thymidine incorporation. The data presented are the mean±SD of at least 3 independent measurements. (E) [S^35]-GTPγS binding assay of different ligands on human CB2 receptor expressed in CHO cells.
A tritiated thymidine incorporation assay was carried out to investigate the effects of CB2 ligands on cell proliferation. U266, RPMI-8226 (3×10^4 cells/well), MM.1 S cells (6×10^4 cells/well), and their resistant sublines were cultured in 96-well culture plates with or without drugs for 48 hours. DNA synthesis was measured by ^3H-thymidine uptake as described previously.

CB1 receptor = target: T1, CB1 receptor (Homo sapiens, UniProt P21554); assay: [3H]CP-55,940 radioligand competition binding, CB1
T1 construct: host or cells: cell membrane preparations
T1 sequence (P21554 whole entry): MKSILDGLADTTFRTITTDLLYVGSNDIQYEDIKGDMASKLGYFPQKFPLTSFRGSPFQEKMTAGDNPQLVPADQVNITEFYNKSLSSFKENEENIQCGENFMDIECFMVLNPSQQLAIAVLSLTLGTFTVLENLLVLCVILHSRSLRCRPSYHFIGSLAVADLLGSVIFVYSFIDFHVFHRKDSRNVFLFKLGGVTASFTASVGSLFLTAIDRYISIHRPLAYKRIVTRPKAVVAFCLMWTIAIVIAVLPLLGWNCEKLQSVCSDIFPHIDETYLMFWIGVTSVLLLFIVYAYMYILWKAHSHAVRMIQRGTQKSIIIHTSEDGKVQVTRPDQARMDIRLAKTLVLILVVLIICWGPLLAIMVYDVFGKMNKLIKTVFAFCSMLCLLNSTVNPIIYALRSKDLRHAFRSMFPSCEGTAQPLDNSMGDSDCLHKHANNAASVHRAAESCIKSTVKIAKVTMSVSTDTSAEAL
Protocol: as §1, §2

[2] = [3H]CP-55,940 displacement, read-out: Ki (CB2)
[3] = [3H]CP-55,940 displacement, read-out: Ki (CB1)

Sequence of CB2 receptor (P34972 whole entry): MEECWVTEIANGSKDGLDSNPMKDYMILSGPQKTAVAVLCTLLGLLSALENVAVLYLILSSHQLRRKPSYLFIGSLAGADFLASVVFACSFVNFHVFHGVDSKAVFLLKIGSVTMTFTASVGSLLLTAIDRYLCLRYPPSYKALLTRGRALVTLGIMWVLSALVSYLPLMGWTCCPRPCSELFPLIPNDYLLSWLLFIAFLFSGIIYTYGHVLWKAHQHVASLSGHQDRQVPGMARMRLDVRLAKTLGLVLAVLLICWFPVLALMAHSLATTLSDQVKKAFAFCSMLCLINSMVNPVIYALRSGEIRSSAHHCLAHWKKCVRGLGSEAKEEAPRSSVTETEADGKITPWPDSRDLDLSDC

| SMILES | SI: selectivity index for CB2 (CB2 receptor) | Ki (CB2 receptor; [2]) | Ki (CB1 receptor; [3]) | other results |
| --- | --- | --- | --- | --- |
| CCN(CC)c1ccc(C(NC(=O)Cc2ccccc2)NC(=O)Cc2ccccc2)cc1 [Compound 17, N,N′-((4-(diethylamino)phenyl)methylene)bis(2-phenylacetamide)] | >313 | 64 nM |  | inhibition at 0.1 µM (RAW 264.7 cells): 72%; inhibition at 1 µM (RAW 264.7 cells): 79%; inhibition at 10 µM (RAW 264.7 cells): 84%; cytotoxic effects ([1]; 1 μM): did not show any cytotoxic effects; effects on cell viability ([1]; 10 μM): only slight effects on cell viability; cell viability vs vehicle control [1]: not significantly affected |
| CCCCCCC(C)(C)c1cc(OC)c([C@@H]2C=C(CO)[C@@H]3C[C@H]2C3(C)C)c(OC)c1 [Hu308] |  |  |  | inhibition of DNA synthesis in MM cells (Human MM cell U266): no effect |
| CC(C)Oc1ccc(C(NC(=O)Cc2ccccc2)NC(=O)Cc2ccccc2)cc1 [Compound 12, N,N′-((4-isopropoxyphenyl)methylene)bis(2-phenylacetamide)] |  |  |  | cell viability vs vehicle control [1]: not significantly affected |
| COc1ccc(C(=O)c2c(C)n(CCN3CCOCC3)c3cc(I)ccc23)cc1 [AM630] |  |  |  | inhibition of DNA synthesis in MM cells (Human MM cell U266): dose dependent inhibition |
| CCN(CC)c1ccc(CN(C23CC4CC(CC(C4)C2)C3)S(=O)(=O)c2cccc(C)c2)cc1 [Compound 61, N-((3s,5s,7s)-Adamantan-1-yl)-N-(4-(diethylamino)benzyl)-3-methylbenzenesulfonamide] |  |  | 8220 nM | Ki (CB2 receptor): 19 nM; inhibition of RANKL-induced osteoclastogenesis, dose dependence (RAW 264.7 cells): dose-dependent manner |
| CCN(CC)c1ccc(CN(c2ccc(Cl)cc2)S(=O)(=O)c2ccc(OC)cc2)cc1 [Compound 84, N-(4-Chlorophenyl)-N-(4-(diethylamino)benzyl)-4-methoxybenzenesulfonamide] | >1,428 | 14 nM | > 20000 nM | inhibition activity at low dose (RAW 264.7 cells): good inhibition activity; inhibition at 1 µM (RAW 264.7 cells): 97%; inhibition of RANKL-induced osteoclastogenesis, dose dependence (RAW 264.7 cells): dose-dependent manner; effect on cell viability ([1]; 5 μM): only slight effect on cell viability; cell viability vs vehicle control ([1]; 1.25 and 2.5 μM): not significantly affected; effects on cell viability ([1]; 5 and 10 μM): only some effects on cell viability; cell viability vs vehicle control [1]: not significantly affected |
| CCN(CC)c1ccc(CN(c2ccc(C)cc2)S(=O)(=O)c2ccc(OC)cc2)cc1 [Compound 93, N-(4-(Diethylamino)benzyl)-4-methoxy-N-(p-tolyl)benzenesulfonamide] | 2594 | 0.5 nM | 1300 nM | inhibition activity at low dose (RAW 264.7 cells): good inhibition activity; inhibition at 0.1 µM (RAW 264.7 cells): 46%; inhibition at 1 µM (RAW 264.7 cells): 97%; inhibition at 10 µM (RAW 264.7 cells): 100%; inhibition of RANKL-induced osteoclastogenesis, dose dependence (RAW 264.7 cells): dose-dependent manner; cell viability vs vehicle control ([1]; 1.25 and 2.5 μM): not significantly affected; effects on cell viability ([1]; 5 and 10 μM): only some effects on cell viability; cell viability vs vehicle control [1]: not significantly affected |
| CCN(CC)c1ccc(CN(c2ccc(C)cc2)S(=O)(=O)c2cccc(C)c2)cc1 [Compound 95, N-(4-(Diethylamino)benzyl)-3-methyl-N-(p-tolyl)benzenesulfonamide] | 37 | 5.8 nM | 218 nM |  |
| CCN(CC)c1ccc(CN(c2ccc(C)cc2)S(=O)(=O)c2ccc(C(C)C)cc2)cc1 [Compound 96, N-(4-(Diethylamino)benzyl)-4-isopropyl-N-(p-tolyl)benzenesulfonamide] | 782 | 4.3 nM | 3360 nM |  |
| CCN(CC)c1ccc(C(NC(=O)C(C)(C)C)NC(=O)C(C)(C)C)cc1 [Compound 51, N,N′-((4-(diethylamino)phenyl)methylene)bis(2,2-dimethylpropanamide)] |  | 3550 nM | > 20000 nM |  |
| CCN(CC)c1ccc(CN(c2ccc(Cl)cc2)S(=O)(=O)c2ccc(Cl)cc2)cc1 [Compound 83, 4-Chloro-N-(4-chlorophenyl)-N-(4-(diethylamino)benzyl)benzenesulfonamide] | 183 | 36 nM | 6620 nM |  |
| CCN(CC)c1ccc(C(NC(=O)C(C)C)NC(=O)C(C)C)cc1 [Compound 50, N,N′-((4-(diethylamino)phenyl)methylene)bis(2-methylpropanamide)] |  | 2640 nM | > 20000 nM |  |
| CCN(CC)c1ccc(CN(c2ccc(C)cc2)S(=O)(=O)c2ccc(F)cc2)cc1 [Compound 91, N-(4-(Diethylamino)benzyl)-4-fluoro-N-(p-tolyl)benzenesulfonamide] | 153 | 5.6 nM | 858 nM |  |
| CCN(CC)c1ccc(CN(C(=O)Cc2ccc(Cl)cc2)c2ccc(Cl)cc2)cc1 [Compound 88, N,2-bis(4-Chlorophenyl)-N-(4-(diethylamino)benzyl)acetamide] | 147 | 136 nM | > 20000 nM |  |
| CCN(CC)c1ccc(CN(C23CC4CC(CC(C4)C2)C3)S(=O)(=O)c2ccccc2)cc1 [Compound 56, N-((3s,5s,7s)-Adamantan-1-yl)-N-(4-(diethylamino)benzyl)benzenesulfonamide] |  |  |  | Ki (CB2 receptor): 84 nM; Ki (CB1 receptor): 11000 nM |
| CCN(CC)c1ccc(C(NC(=O)C=Cc2ccccc2)NC(=O)C=Cc2ccccc2)cc1 (stereo not drawn) [Compound 48, N,N′-((4-(Diethylamino)phenyl)methylene)bis(3-phenylacrylamide)] | >119 | 167 nM | > 20000 nM |  |
| CC(C)c1ccc(C(NC(=O)Cc2ccccc2)NC(=O)Cc2ccccc2)cc1 [Compound 9, N,N′-((4-isopropylphenyl)methylene)bis(2-phenylacetamide)] |  |  |  | cell viability vs vehicle control [1]: not significantly affected |
| CCN(CC)c1ccc(CN(c2ccc(Cl)cc2)S(=O)(=O)c2ccc(C)cc2)cc1 [Compound 85, N-(4-Chlorophenyl)-N-(4-(diethylamino)benzyl)-4-methylbenzenesulfonamide] | 3.7 | 37 nM | 137 nM |  |
| CCN(CC)c1ccc(CN(C23CC4CC(CC(C4)C2)C3)S(=O)(=O)c2ccc(Cl)cc2)cc1 [Compound 58, N-((3s,5s,7s)-Adamantan-1-yl)-4-chloro-N-(4-(diethylamino)benzyl)benzenesulfonamide] | 11 | 173 nM | 2030 nM |  |
